PubChem BioAssay AID1963868 (Molecular Pharmacology Branch, DTP, NCI, 2024)

System: KRAS PDC tumor spheroids (HUVEC+MSC), viability
Experiment: Anticancer human tumor 254851-301-R-J1-PDC patient-derived colon carcinoma cell line growth inhibition [KRAS2]
Settings: for IC50: curve of first compound; for viability, T/C: stronger effect = lower value
Method in brief: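 KRAS-mutant tumor cells were grown as spheroids with HUVEC endothelial cells and human MSCs as stroma. Targeted agents were tested alone and with KRAS pathway inhibitors. Doses started at or near clinical Cmax, or 10 microM, descending half-log.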

[1] = second compound 0.1 µM, first compound 0.0316 µM
[2] = second compound 0.1 µM, first compound 0.1 µM
[3] = second compound 0.1 µM, first compound 0.316 µM
[4] = second compound 0.1 µM, first compound 1 µM
[5] = second compound 0.1 µM, first compound 3.16 µM
[6] = second compound 0.316 µM, first compound 0.0316 µM
[7] = second compound 0.316 µM, first compound 0.1 µM
[8] = second compound 0.316 µM, first compound 0.316 µM
[9] = second compound 0.316 µM, first compound 1 µM
[10] = second compound 0.316 µM, first compound 3.16 µM
[11] = second compound 1 µM, first compound 0.0316 µM
[12] = second compound 1 µM, first compound 0.1 µM
[13] = second compound 1 µM, first compound 0.316 µM
[14] = second compound 1 µM, first compound 1 µM
[15] = second compound 1 µM, first compound 3.16 µM
[16] = second compound 3.16 µM, first compound 0.0316 µM
[17] = second compound 3.16 µM, first compound 0.1 µM
[18] = second compound 3.16 µM, first compound 0.316 µM
[19] = second compound 3.16 µM, first compound 1 µM
[20] = second compound 3.16 µM, first compound 3.16 µM
[21] = second compound 10 µM, first compound 0.0316 µM
[22] = second compound 10 µM, first compound 0.1 µM
[23] = second compound 10 µM, first compound 0.316 µM
[24] = second compound 10 µM, first compound 1 µM
[25] = second compound 10 µM, first compound 3.16 µM
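Further: spheroids exposed to compounds for seven days before readout.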
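Wherever viability, T/C is given: 100% = DMSO vehicle control luminescence of the spheroids.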

| SMILES | IC50 (second compound 0.1 µM) [nM] | IC50 (second compound 0.316 µM) [nM] | IC50 (second compound 1 µM) [nM] | IC50 (second compound 3.16 µM) [nM] | IC50 (second compound 10 µM) [nM] | viability, T/C [1] [%] | viability, T/C [2] [%] | viability, T/C [3] [%] | viability, T/C [4] [%] | viability, T/C [5] [%] | viability, T/C [6] [%] | viability, T/C [7] [%] | viability, T/C [8] [%] | viability, T/C [9] [%] | viability, T/C [10] [%] | viability, T/C [11] [%] | viability, T/C [12] [%] | viability, T/C [13] [%] | viability, T/C [14] [%] | viability, T/C [15] [%] | further results |
| --- | --- | --- | --- | --- | --- | --- | --- | --- | --- | --- | --- | --- | --- | --- | --- | --- | --- | --- | --- | --- | --- |
| CC1OCC2(CCN(c3cnc(Sc4ccnc(N)c4Cl)c(N)n3)CC2)C1N (stereo not given) + CNCc1ccccc1-c1csc(C(C)Nc2nc(C)nc3cc(OC)c(OC)cc23)c1 | > 10000 | > 10000 | > 10000 | < 31.6 | < 31.6 | 103 | 97.3 | 88.2 | 76.4 | 78.1 | 92.2 | 90.9 | 90.5 | 81.1 | 82.6 | 91.2 | 88.5 | 86.9 | 78.7 | 72.4 | viability, T/C (second compound 0.1 µM, first compound 10 µM): 74.6%; viability, T/C (second compound 0.316 µM, first compound 10 µM): 75.3%; viability, T/C (second compound 1 µM, first compound 10 µM): 67.6%; viability, T/C [16]: 50.8%; viability, T/C [17]: 38.7%; viability, T/C [18]: 52.9%; viability, T/C [19]: 30.8%; viability, T/C [20]: 29.4%; viability, T/C (second compound 3.16 µM, first compound 10 µM): 25.9%; viability, T/C [21]: 0.09%; viability, T/C [22]: 0.09%; viability, T/C [23]: 0.08%; viability, T/C [24]: 0.09%; viability, T/C [25]: 0.42%; viability, T/C (second compound 10 µM, first compound 10 µM): 0.17% |
| CC(=O)OC12COC1CC(O)C1(C)C(=O)C(O)C3=C(C)C(OC(=O)C(O)C(NC(=O)OC(C)(C)C)c4ccccc4)CC(O)(C(OC(=O)c4ccccc4)C21)C3(C)C (stereo not given) + COc1cc2nc(C)nc(NC(C)c3cc(N)cc(C(F)(F)F)c3)c2cc1OC1CCOC1 | 180 | 143 | 166 | 66.2 | 69.7 | 87 | 62.2 | 38.4 | 27 | 24.5 | 92.7 | 56.4 | 34.6 | 24.7 | 23.3 | 78.7 | 62.1 | 34.6 | 26.4 | 24.5 | viability, T/C (second compound 0.1 µM, first compound 0.01 µM): 95%; viability, T/C (second compound 0.316 µM, first compound 0.01 µM): 96.1%; viability, T/C (second compound 1 µM, first compound 0.01 µM): 82.2%; viability, T/C (second compound 3.16 µM, first compound 0.01 µM): 71.8%; viability, T/C [16]: 67%; viability, T/C [17]: 40.3%; viability, T/C [18]: 28.1%; viability, T/C [19]: 24.9%; viability, T/C [20]: 24.2%; viability, T/C (second compound 10 µM, first compound 0.01 µM): 72.4%; viability, T/C [21]: 68.9%; viability, T/C [22]: 41.4%; viability, T/C [23]: 25%; viability, T/C [24]: 25.1%; viability, T/C [25]: 24.4% |
